Source: US8906826B2, “Herbicidal compositions comprising 4-amino-3-chloro-5-fluoro-6-(4-chloro-2-fluoro-3-methoxyphenyl) pyridine-2-carboxylic acid or a derivative thereof and imidazolinones” (Dow AgroSciences, LLC, priority 2012, dated 2014)

Key:
ECHCG = assay: In-water applied, transplanted paddy rice weeds (Example II); assay type: in vivo, Echinochloa crusgalli (L.) Beauv.
Procedure: (§1) Weed seeds or nutlets of the desired test plant species were planted in puddled soil (mud) prepared by mixing a shredded, non-sterilized mineral soil (50.5 percent silt, 25.5 percent clay, and 24 percent sand, with a pH of about 7.6 and an organic matter content of about 2.9 percent) and water at a 1:1 volumetric ratio. The prepared mud was dispensed in 365 mL aliquots into 16-ounce (oz.) non-perforated plastic pots with a surface area of 86.59 square centimeters (cm^2) leaving a headspace of 3 centimeters (cm) in each pot. Mud was allowed to dry overnight prior to planting or transplanting. Rice seeds were planted in Sun Gro MetroMix® 306 planting mixture, which typically has a pH of about 6.0 to about 6.8 and an organic matter content of about 30 percent, in plastic plug trays. Seedlings at the second or third leaf stage of growth were transplanted into 860 mL of mud contained in 32-oz. non-perforated plastic pots with a surface area of 86.59 cm^2 4 days prior to herbicide application. The paddy was created by filling the headspace of the pots with 2.5 to 3 cm of water. When required to ensure good germination and healthy plants, a fungicide treatment and/or other chemical or physical treatment was applied. The plants were grown for 4-22 days in a greenhouse with an approximate 14 h photoperiod which was maintained at about 29° C. during the day and about 26° C. during the night. Nutrients were added as Osmocote® (19:6:12, N:P:K+minor nutrients) at 2 g per 16-oz. pot and 4 g per 32-oz. pot. Water was added on a regular basis to maintain the paddy flood, and supplemental lighting was provided with overhead metal halide 1000-Watt lamps as necessary. The plants were employed for testing when they reached the first through fourth true leaf stage.
(§2) Treatments consisted of the acid or esters of 4-amino-3-chloro-5-fluoro-6-(4-chloro-2-fluoro-3-methoxy-phenyl)pyridine-2-carboxylic acid (compound A) each formulated as an SC and various herbicidal components alone and in combination. Forms of compound A were applied on an acid equivalent basis.
(§3) Other herbicidal components were applied on an acid equivalent basis and included the acetolactate synthase (ALS)-inhibiting imidazolinone herbicides imazethapyr ammonium salt formulated as Newpath®, imazamox ammonium salt formulated as Beyond®, imazapic ammonium salt formulated as Plateau®, imazapyr isopropylamine salt formulated as Arsenal®, imazamethabenz-methyl (technical material), and imazaquin isopropylamine salt formulated as Scepter®.
(§4) Treatment requirements for each compound or herbicidal component were calculated based upon the rates being tested, the concentration of active ingredient or acid equivalent in the formulation, an application volume of 2 mL per component per pot, and an application area of 86.59 cm^2 per pot.
(§5) For formulated compounds, a measured amount was placed in an individual 100 or 200 mL glass vial and was dissolved in a volume of 1.25% (v/v) Agri-Dex® crop oil concentrate to obtain application solutions.
(§6) For technical grade compounds, a weighed amount was placed in an individual 100 to 200 mL glass vial and was dissolved in a volume of acetone to obtain concentrated stock solutions. […] The concentrated stock solutions obtained were diluted with an equivalent volume of an aqueous mixture containing 2.5% (v/v) crop oil concentrate so that the final application solutions contained 1.25% (v/v) crop oil concentrate.
(§7) Applications were made by injecting with a pipetter appropriate amounts of the application solutions, individually and sequentially, into the aqueous layer of the paddy. Control plants were treated in the same manner with the solvent blank. Applications were made so that all treated plant material received the same concentrations of acetone and crop oil concentrate.
(§8) The treated plants and control plants were placed in a greenhouse as described above and water was added as needed to maintain a paddy flood. […]

ECHOR = assay: as above; assay type: in vivo, Echinochloa oryzoides (Ard.) Fritsch
Procedure: as §1, §2, §3, §4, §5, §6, §7, §8

AVEFA = assay: Postemergence foliar-applied, general weed control (Example III); assay type: in vivo, Avena fatua L.
Procedure: Seeds or nutlets of the desired test plant species were planted in Sun Gro Metro-Mix® 360 planting mixture, which typically has a pH of about 6.0 to about 6.8 and an organic matter content of about 30 percent, in plastic pots with a surface area of 84.6 cm^2 and a volume of 560 cubic centimeters (cm^3). When required to ensure good germination and healthy plants, a fungicide treatment and/or other chemical or physical treatment was applied. The plants were grown for 7-31 days (d) in a greenhouse with an approximate 15 hour (h) photoperiod which was maintained at about 23-29° C. during the day and about 22-28° C. during the night. Nutrients (Peters Excel® 15-5-15 5-Ca 2-Mg) and water were added on a regular basis and supplemental lighting was provided with overhead metal halide 1000-Watt lamps as necessary. The plants were employed for testing when they reached the first, second, or third true leaf stage.
Treatment requirements were calculated based upon the rates being tested, the concentration of active ingredient or acid equivalent in the formulation, and a 12 mL application volume at a rate of 187 L/ha.
as §2, with “(Compound A),” for “(compound A)”, “SC,” for “SC”, “basis. […]” for “basis.”
For treatments comprised of formulated compounds, measured amounts of compounds were placed individually in 25 mL glass vials and diluted in a volume of 1.25% (v/v) Agri-Dex® crop oil concentrated to obtain 12× stock solutions. […]
The treated plants and control plants were placed in a greenhouse as described above and watered by sub-irrigation to prevent wash-off of the test compounds. After approximately 3 weeks, the condition of the test plants as compared with that of the untreated plants was determined visually and scored on a scale of 0 to 100 percent where 0 corresponds to no injury or growth inhibition and 100 corresponds to complete kill. […]

[1] = Imazethapyr ammonium 8.75 gae/ha
[2] = Imazethapyr ammonium 17.5 gae/ha
[3] = Compound A Benzyl Ester 17.5 gae/ha

`COCc1cnc(C2=NC(C)(C(C)C)C(=O)N2)c(C(=O)O)c1.N` (racemic) [Imazamox ammonium, ammonium (±)-2-[4,5-dihydro-4-methyl-4-(1-methylethyl)-5-oxo-1H-imidazol-2-yl]-5-(methoxymethyl)-3-pyridinecarboxylate] was tested, and the “Visual Weed Control (%) - 25 DAA ECHCG Obs” value (ECHCG; Imazamox ammonium 5.6 gae/ha) was 0%, the “Visual Weed Control (%) - 25 DAA ECHCG Obs” value (ECHCG; Imazamox ammonium 22.4 gae/ha) was 25% and the “Visual Weed Control (%) - 25 DAA ECHOR Obs” value (ECHOR; Imazamox ammonium 5.6 gae/ha) was 0%. For the same compound, the “Visual Weed Control (%) - 25 DAA ECHOR Obs” value (ECHOR; Imazamox ammonium 11.2 gae/ha) was 0% and the “Visual Weed Control (%) - 25 DAA ECHOR Obs” value (ECHOR; Imazamox ammonium 22.4 gae/ha) was 0%.
In the case of `Cc1cnc(C2=NC(C)(C(C)C)C(=O)N2)c(C(=O)O)c1.N` (racemic) [Imazapic ammonium, ammonium (±)-2-[4,5-dihydro-4-methyl-4-(1-methylethyl)-5-oxo-1H-imidazol-2-yl]-5-methyl-3-pyridinecarboxylic acid], the “Visual Weed Control (%) - 25 DAA ECHCG Obs” value (ECHCG; Imazapic ammonium 8.75 gae/ha) is reported as 20%, the “Visual Weed Control (%) - 25 DAA ECHCG Obs” value (ECHCG; Imazapic ammonium 17.5 gae/ha) is reported as 20% and the “Visual Weed Control (%) - 25 DAA ECHOR Obs” value (ECHOR; Imazapic ammonium 4.38 gae/ha) is reported as 0%. For the same compound, the “Visual Weed Control (%) - 25 DAA ECHOR Obs” value (ECHOR; Imazapic ammonium 8.75 gae/ha) was 0%, the “Visual Weed Control (%) - 25 DAA CHOR Obs” value (ECHOR; Imazapic ammonium 17.5 gae/ha) was 0% and the “Visual Weed Control (%) - 25 DAA ECHOR Obs” value (ECHOR; Imazapic ammonium 17.5 gae/ha) was 0%. For the same compound, the “Visual Weed Control (%) - 19 DAA ECHOR Obs” value (ECHOR; Imazapic ammonium 35 gae/ha) was 78% and the “Visual Weed Control (%) - 19 DAA AVEFA Obs” value (AVEFA; Imazapic ammonium 35 gae/ha) was 70%.
`CCc1cnc(C2=NC(C)(C(C)C)C(=O)N2)c(C(=O)O)c1.N` (racemic) [Imazethapyr ammonium, ammonium (±)-2-[4,5-dihydro-4-methyl-4-(1-methylethyl)-5-oxo-1H-imidazol-2-yl]-5-ethyl-3-pyridinecarboxylate] was tested, and the “Visual Weed Control (%) - 25 DAA ECHCG Obs” value (ECHCG; [1]) was 0%, the “Visual Weed Control (%) - 25 DAA ECHCG Obs” value (ECHCG; [2]) was 0% and the “Visual Weed Control (%) - 25 DAA ECHCG Obs” value (ECHCG; Imazethapyr ammonium 35 gae/ha) was 50%. The “Visual Weed Control (%) - 25 DAA ECHOR Obs” value (ECHOR; [1]) was 0%, the “Visual Weed Control (%) - 25 DAA ECHOR Obs” value (ECHOR; [2]) was 0% and the “Visual Weed Control (%) - 25 DAA ECHOR Obs” value (ECHOR; Imazethapyr ammonium 35 gae/ha) was 25%. For the same compound, the “Visual Weed Control (%) - 19 DAA AVEFA Obs” value (AVEFA; Imazethapyr ammonium 70 gae/ha) was 80%.
With `COc1c(Cl)ccc(-c2nc(C(=O)O)c(Cl)c(N)c2F)c1F` [Compound A Acid, 4-amino-3-chloro-6-(4-chloro-2-fluoro-3-methoxyphenyl)-5-fluoropyridine-2-carboxylic acid] the “Visual Weed Control (%) - 25 DAA ECHCG Obs” value (ECHCG; Compound A Acid 8.75 gae/ha) was 0%, the “Visual Weed Control (%) - 25 DAA ECHCG Obs” value (ECHCG; Compound A Acid 17.5 gae/ha) was 0% and the “Visual Weed Control (%) - 25 DAA ECHCG Obs” value (ECHCG; Compound A Acid 35 gae/ha) was 0%. For the same compound, the “Visual Weed Control (%) - 25 DAA CHOR Obs” value (ECHOR; Compound A Acid 8.75 gae/ha) was 0%, the “Visual Weed Control (%) - 25 DAA ECHOR Obs” value (ECHOR; Compound A Acid 8.75 gae/ha) was 0% and the “Visual Weed Control (%) - 22 DAA ECHOR Obs” value (ECHOR; Compound A Acid 10.6 gae/ha) was 15%. The “Visual Weed Control (%) - 25 DAA CHOR Obs” value (ECHOR; Compound A Acid 17.5 gae/ha) was 0%, the “Visual Weed Control (%) - 25 DAA ECHOR Obs” value (ECHOR; Compound A Acid 17.5 gae/ha) was 0% and the “Visual Weed Control (%) - 25 DAA CHOR Obs” value (ECHOR; Compound A Acid 35 gae/ha) was 10%. The “Visual Weed Control (%) - 25 DAA ECHOR Obs” value (ECHOR; Compound A Acid 35 gae/ha) was 10%, the “Visual Weed Control (%) - 19 DAA ECHOR Obs” value (ECHOR; Compound A Acid 42 gae/ha) was 15% and the “Visual Weed Control (%) - 22 DAA ECHOR Obs” value (ECHOR; Compound A Acid 42.4 gae/ha) was 40%. For the same compound, the “Visual Weed Control (%) - 19 DAA AVEFA Obs” value (AVEFA; Compound A Acid 29 gae/ha) was 10%.
With `COc1c(Cl)ccc(-c2nc(C(=O)OCc3ccccc3)c(Cl)c(N)c2F)c1F` [Compound A Benzyl Ester, benzyl ester of 4-amino-3-chloro-5-fluoro-6-(4-chloro-2-fluoro-3-methoxy-phenyl)pyridine-2-carboxylic acid] the “Visual Weed Control (%) - 25 DAA ECHCG Obs” value (ECHCG; [3]) was 10%, the “Visual Weed Control (%) - 25 DAA ECHCG Obs” value (ECHCG; Compound A Benzyl Ester 35 gae/ha) was 45% and the “Visual Weed Control (%) - 25 DAA ECHOR Obs” value (ECHOR; Compound A Benzyl Ester 8.75 gae/ha) was 0%. For the same compound, the “Visual Weed Control (%) - 22 DAA ECHOR Obs” value (ECHOR; [3]) was 30%.
